The values below come from US10238713B2, “Cyclic tetrapeptides and therapeutic applications thereof” (LODZ UNIVERSITY OF TECHNOLOGY, priority 2010, dated 2019).

Non-standard residues stand in square brackets, D forms with d. Residues, ends and D or L forms follow the SMILES beside them. Oic = O=C(O)[C@@H]1C[C@@H]2CCCC[C@@H]2N1; Phe(4-Cl) = N[C@@H](Cc1ccc(Cl)cc1)C(=O)O; Phe(4-Me) = Cc1ccc(C[C@H](N)C(=O)O)cc1; 3Pal = N[C@@H](Cc1cccnc1)C(=O)O; Tic = O=C(O)[C@@H]1Cc2ccccc2CN1; β3hF = N[C@H](CC(=O)O)Cc1ccccc1

The subject of data set [1] is PHA-induced proliferation of human peripheral blood mononuclear cells (PBMC). Put plainly: Proliferative response of PBMC to PHA (MTT). Conditions: four-day incubation, FIGS. 9A-9F. Format: cell-based.
Description: (§2) PBMC were isolated by centrifugation on Ficoll-uropoline gradient (density 1.077 g/ml) (Lymphoprep; PAA Laboratories), at 800×g for 20 min at 4° C. The interphase cells, consisting of lymphocytes (20%) and monocytes (80%) were then washed three times with Hanks' medium and re-suspended in the culture medium at density of 2×10^6 cells/ml.
The isolated PBMC were distributed into 96-well flat-bottom plates in 100 μl aliquots (2×10^5 cells/well). PHA was used at concentration of 5 μg/ml. The compounds were tested at concentrations of 1, 10 and 100 μg/ml. DMSO at appropriate dilutions served as control. After a four-day incubation in a cell culture incubator, the proliferative response of cells was determined by the colorimetric MTT method (Hansen et al., J. Immunol. Methods, 1989, pp. 203-210). The data are presented as a mean OD value from quadriplicate wells ±standard error (SE). The cultures “Control (−)” contained no mitogen (PHA). The cultures “Control (PHA)” contained PHA but not cyclic tetrapeptides.
Briefly, 25 μl of MTT (5 mg/ml) stock solution was added per well at the end of cell incubation and the plates were incubated for 3 h in a cell culture incubator. Then, 100 μl of the extraction buffer (20% SDS with 50% DMF, pH 4.7) was added. After additional overnight incubation, the optical density was measured at 550 nm (Dynatech 5000).
Data set [2] concerns mice, carrageenan-induced foot pad edema. Nature of the data set: Carrageenan-induced foot-pad edema test. The following applies: 4 h after carrageenan; peptides 250 μg i.p., DEX 25 μg i.p., 30 min before; FIGS. 17A-17C. The format is in vivo, mouse. How it is done:
(§1) In this and the air-pouch test, 1.5 mg peptide was dissolved in 300 μl of DMSO, then in 0.9% NaCl to achieve the desired dose (250 μg/0.2 ml or 100 μg/0.2 ml). Carrageenan (Sigma) was dissolved in 0.9% aqueous NaCl (overnight). 50 μl of 2% carrageenan solution was injected intradermally into hind foot pads. The peptides were given in a single 250 μg dose (0.2 ml) per mouse intraperitoneally (i.p.), 30 min before carrageenan administration. Dexamethasone (DEX) (Dexaven, Polfa, Poland), a reference drug, was given i.p. in dose 25 μg per mouse. Control mice were administered i.p. appropriately diluted solvent (DMSO in aqueous NaCl) instead of peptides. The foot pads of “background” (BG) mice were injected with 50 μl of 0.9% aqueous NaCl. Foot pad edema was measured with a spring caliper, 2 h, 3 h and 4 h after administration of carrageenan. The results are presented in FIGS. 17A, 17B and 17C as mean values of the antigen-specific increase of the foot pad thickness measured in 5 mice in each experimental group and expressed in mm ±SE (only results from measurements 4 h following administration of carrageenan are presented in figures). Statistics: FIG. 17A: Control vs: DEX P=0.0001; 4B8M P=0.0001; P25 NS (P=1.0000); P28 NS (P=1.0000); P31 NS (P=0.0528); P35 P=0.0008 (ANOVA of Kruskal-Wallis); FIG. 17B: Statistics: Control vs: P22 NS (P=1.0000); P26 NS (P=1.0000); P27 P=0.0050; P30 P=0.0004; P33-b NS (P=1.0000); SP00-b P=0.0001; P00S-b NS (P=1.0000) (ANOVA of Kruskal-Wallis); FIG. 17C: Statistics: Control vs: P21 P=0.0147; P23-2 P=0.0083; P24 P=0.0001; P29 NS (P=0.9999); P32 P=0.0001; P33 NS (P=0.6806); P34 NS (P=0.1920) (ANOVA).
(Carrageenan injected into the paw causes an acute inflammation.)

Data set [3] has as its system mice, carrageenan air pouch. Put plainly: Carrageenan air-pouch test (exudate cell number). Format: in vivo, mouse. Conditions: peptides 100 μg i.p. one hour before carrageenan, 24 h; FIGS. 18A-18B. How it is done: as §1
Air pouches were formed by subdermal injection into the dorsal region (in a halothane anesthesia) of 5 cm^3 of air (needle 23G x 11/4, 5 ml syringe). On day 3 the air pouches were given an additional 2 ml of air and an inflammatory process was elicited by an intra-pouch injection of 1% of carrageenan in 0.5 ml of 0.9% aqueous NaCl. The peptides were given i.p. at a dose of 100 μg one hour before carrageenan injection into the air pouch. The mice from the “background” (BG) group were given 0.9% aqueous NaCl i.p. and 0.9% aqueous NaCl into the air pouches. Control mice were given appropriately diluted DMSO i.p. and carrageenan into the air pouches. 24 h after carrageenan injection, the mice were sacrificed by cervical dislocation, the air pouches were supplemented with 1 ml of 0.9% aqueous NaCl and the exudates from the air pouches were aspirated using a syringe. The exudates were diluted with 0.9% aqueous NaCl and the cells were counted in a Bürker hemocytometer. Data are presented in FIGS. 18A and 18B as the mean values from 10 mice/group (cell number×10^6 per mouse) ±SE. Then the cells were centrifuged and 0.1 ml of the supernatant was saved for TNF-α determination (see Determination of TNF-α activity, above). The cell pellets were used to perform smears on microscopic glasses, which were stained with Giemsa and May-Grünwald reagents for evaluation of mast cell degranulation. Cell analysis was performed by a histologist using a light microscope and 1000× magnification. The content of intact and degranulated mast cells is given in percentage (mean values from 10 mice/group) ±SE. Statistics: FIG. 18A: BG vs Control P=0.0000; Control vs: DEX P=0.0034; 4B8M P=0.0005; P22 NS (P=0.7275); P26 P=0.0032; P27 NS (P=0.0659); P35 NS (P=1.0000) (ANOVA of Kruskal-Wallis); FIG. 18B: Control vs: P21 NS (P=0.322); P23-2 P=0.0020; P24 P=0.0001; P25 P=0.0418; P28 NS (P=0.3502); P29 NS (P=0.0582); P30 P=0.0006; P31 P=0.0078; P32 P=0.0340; P33 NS (P=0.9993); P34 NS (p=0.0566) (ANOVA).

Data set [4] has as its system human PBMC. Nature of the data set: Toxicity test: PBMC survival in 24 h culture (MTT). Conditions: ANOVA, FIGS. 8A-8F (4B8M repeated per figure).
Description: as §2
Appropriate dilutions of DMSO in RPMI 1640 medium were used as controls. Cell survival was determined by the MTT colorimetric method (Hansen et al., J. Immunol. Methods, 1989, pp. 203-210). The data are presented as a mean OD value from quadriplicate wells ±standard error (SE). The cultures “Control (−)” contained only cells in the culture medium.
The assay was performed per Hansen et al., J. Immunol. […] Briefly, 25 μl of MTT (5 mg/ml) stock solution was added per well at the end of cell incubation and the plates were incubated for 3 h in a cell culture incubator. Then, 100 μl of the extraction buffer (20% SDS with 50% DMF, pH 4.7) was added. After additional overnight incubation, the optical density was measured at 550 nm (Dynatech 5000).

As to `O=C1C[C@H](Cc2ccccc2)NC(=O)[C@@H]2Cc3ccccc3CN2C(=O)[C@@H]2CCCN2C(=O)[C@H](Cc2ccccc2)N1` [I-AB] (cyclo(FP[Tic][β3hF])), the figures for the “PHA-induced PBMC proliferation, P vs DMSO at appropriate dilution” value in data set [1] (10 μg/ml) and in data set [1] (100 μg/ml) were 1.0000 and 0.0001, respectively. Also, the “foot pad edema (increase of foot pad thickness), P vs Control” value in data set [2] amounted to 0.9999. For the same molecule, the “air pouch exudate cell number, P vs Control” value in data set [3] stood at 0.0582. Moreover, the “PBMC survival, P vs DMSO at appropriate dilution” value (“PBMC survival, P vs DMSO” below) in data set [4] (10 μg/ml) was determined as 0.8876; in data set [4] (100 μg/ml), 0.0001.
On to `O=C1C[C@H](Cc2ccccc2)NC(=O)[C@@H]2C[C@@H]3CCCC[C@@H]3N2C(=O)[C@@H]2CCCN2C(=O)[C@H](Cc2ccccc2)N1` [I-Y] (cyclo(FP[Oic][β3hF])), for which the “PHA-induced PBMC proliferation, P vs DMSO at appropriate dilution” value in data set [1] (10 μg/ml) and in data set [1] (100 μg/ml) was 0.0001 in each case. The “foot pad edema (increase of foot pad thickness), P vs Control” value in data set [2] was 1.0000. In addition, the “air pouch exudate cell number, P vs Control” value in data set [3] came out at 0.0032. In addition, the results for the “PBMC survival, P vs DMSO” value in data set [4] (10 μg/ml) and in data set [4] (100 μg/ml) were 0.9992 and 0.0001, respectively.
For the molecule `O=C1N[C@@H](Cc2ccccc2)CC(=O)N2Cc3ccccc3C[C@H]2C(=O)N2CCC[C@H]2C(=O)N2CCC[C@@H]12` [I-AA] (cyclo(PP[β3hF][Tic])), in data set [1] (100 μg/ml), the “PHA-induced PBMC proliferation, P vs DMSO at appropriate dilution” value amounted to 1.0000. In data set [2], the “foot pad edema (increase of foot pad thickness), P vs Control” value was determined as 1.0000. Besides, in data set [3], the “air pouch exudate cell number, P vs Control” value is recorded as 0.3502. In addition, the “PBMC survival, P vs DMSO” value in data set [4] (10 μg/ml) is given as 0.9997; in data set [4] (100 μg/ml), 0.9978.
With `O=C1C[C@H](Cc2ccccc2)NC(=O)[C@@H]2CCCN2C(=O)[C@@H]2CCCN2C(=O)[C@H](Cc2ccc(Cl)cc2)N1` [I-V] (cyclo(PP[β3hF][Phe(4-Cl)])), the “PHA-induced PBMC proliferation, P vs DMSO at appropriate dilution” value worked out at 1.0000 in data set [1] (10 μg/ml) and 0.4681 in data set [1] (100 μg/ml). Moreover, in data set [2], the “foot pad edema (increase of foot pad thickness), P vs Control” value was determined as 0.0001. In data set [3], the “air pouch exudate cell number, P vs Control” value worked out at 0.0001. The “PBMC survival, P vs DMSO” value in data set [4] (10 μg/ml) amounted to 0.9999; in data set [4] (100 μg/ml), 0.1122.
As to `O=C1C[C@H](Cc2ccccc2)NC(=O)[C@@H]2CCCN2C(=O)[C@@H]2CCCN2C(=O)[C@H](Cc2cccnc2)N1` [I-AC] (cyclo([3Pal]PP[β3hF])), the “PHA-induced PBMC proliferation, P vs DMSO at appropriate dilution” value in data set [1] (10 μg/ml) worked out at 0.9850; in data set [1] (100 μg/ml), 0.9871. Besides, the “foot pad edema (increase of foot pad thickness), P vs Control” value in data set [2] is on record as 0.0004. The “air pouch exudate cell number, P vs Control” value in data set [3] is on record as 0.0006. Besides, the “PBMC survival, P vs DMSO” value in data set [4] (10 μg/ml) was determined as 0.8178; in data set [4] (100 μg/ml), 0.9882.
On to `Cc1ccc(C[C@@H]2NC(=O)C[C@H](Cc3ccccc3)NC(=O)[C@@H]3CCCN3C(=O)[C@@H]3CCCN3C2=O)cc1` [I-Z] (cyclo(PP[β3hF][Phe(4-Me)])), for which the entries for the “PHA-induced PBMC proliferation, P vs DMSO at appropriate dilution” value in data set [1] (10 μg/ml) and in data set [1] (100 μg/ml) were 0.9121 and 0.8195, respectively. Further, in data set [2], the “foot pad edema (increase of foot pad thickness), P vs Control” value is reported as 0.0050. For the same molecule, the “air pouch exudate cell number, P vs Control” value in data set [3] was 0.0659. For the same molecule, the “PBMC survival, P vs DMSO” value in data set [4] (10 μg/ml) came out at 0.9997; in data set [4] (100 μg/ml) it was 0.0236.
